Test results from ChEMBL document CHEMBL5634100, “Novel spiro[pyrrolidine-2,3'-quinoline]-2'-one derivatives containing piperazine fragment as potential chitin synthase inhibitors and antifungal agents: Design, synthesis and biological evaluation” (Eur J Med Chem, 2023).
pIC50: −log10 of the molar value. Values after ≈ are worked out from the molar mass of the structure shown.

Tests used:
Candida tropicalis = experiment: Inhibition of Candida tropicalis ATCC 750 chitin synthase using UDP-GlcNAc as substrate at 300 ug/ml by TMB based microplate analyzer relative to control; conditions: dose 300.0 µg/ml
[1] = Inhibition of Candida tropicalis ATCC 750 chitin synthase using UDP-GlcNAc as substrate by TMB based microplate analyzer
Candida albicans [2] = experiment: Antimicrobial activity against Candida albicans ATCC 76615 incubated for 24 hrs by two fold serial dilution method; type: functional
Aspergillus flavus [3] = experiment: Antimicrobial activity against Aspergillus flavus ATCC 16870 incubated for 24 hrs by two fold serial dilution method; type: functional
Aspergillus fumigatus [4] = experiment: Antimicrobial activity against Aspergillus fumigatus GIMCC 3.19 incubated for 24 hrs by two fold serial dilution method; type: functional
Cryptococcus neoformans [5] = experiment: Antimicrobial activity against Cryptococcus neoformans ATCC 32719 incubated for 24 hrs by two fold serial dilution method; type: functional
Candida albicans [6] = experiment: Antimicrobial activity against Candida albicans ATCC 76615 assessed as inhibition of cell wall synthesis in presence of sorbitol; type: functional
Aspergillus flavus [7] = experiment: Antimicrobial activity against Aspergillus flavus ATCC 16870 assessed as inhibition of cell wall synthesis in presence of sorbitol; type: functional
Aspergillus fumigatus [8] = experiment: Antimicrobial activity against Aspergillus fumigatus GIMCC 3.19 assessed as inhibition of cell wall synthesis in presence of sorbitol; type: functional
Cryptococcus neoformans [9] = experiment: Antimicrobial activity against Cryptococcus neoformans ATCC 32719 assessed as inhibition of cell wall synthesis in presence of sorbitol; type: functional
Candida albicans [10] = experiment: Antimicrobial activity against fluconazole-resistant Candida albicans ATCC 76615R incubated for 24 hrs by two fold serial dilution method; type: functional
Aspergillus flavus [11] = experiment: Antimicrobial activity against Fluconazole-resistant Aspergillus flavus ATCC 16870R incubated for 24 hrs by two fold serial dilution method; type: functional
Aspergillus fumigatus [12] = experiment: Antimicrobial activity against Fluconazole-resistant Aspergillus fumigatus GIMCC 3.19R incubated for 24 hrs by two fold serial dilution method; type: functional
Cryptococcus neoformans [13] = experiment: Antimicrobial activity against Fluconazole-resistant Cryptococcus neoformans ATCC 32719R incubated for 24 hrs by two fold serial dilution method; type: functional
Candida albicans [14] = experiment: Antimicrobial activity against micafungin-resistant Candida albicans ATCC 76615R incubated for 24 hrs by two fold serial dilution method; type: functional
Candida albicans [15] = experiment: Antimicrobial activity against Candida albicans ATCC 76615 incubated for 24 hrs in presence of fluconazole by checkerboard method; type: functional
Aspergillus flavus [16] = experiment: Antimicrobial activity against Aspergillus flavus ATCC 16870 incubated for 24 hrs in presence of fluconazole by checkerboard method; type: functional
Aspergillus fumigatus [17] = experiment: Antimicrobial activity against Aspergillus fumigatus GIMCC 3.19 incubated for 24 hrs in presence of fluconazole by checkerboard method; type: functional
Cryptococcus neoformans [18] = experiment: Antimicrobial activity against Cryptococcus neoformans ATCC 32719 incubated for 24 hrs in presence of fluconazole by checkerboard method; type: functional
Candida albicans [19] = experiment: Antimicrobial activity against Candida albicans ATCC 76615 incubated for 24 hrs in presence of polyoxin B by checkerboard method; type: functional
Aspergillus flavus [20] = experiment: Antimicrobial activity against Aspergillus flavus ATCC 16870 incubated for 24 hrs in presence of polyoxin B by checkerboard method; type: functional
Aspergillus fumigatus [21] = experiment: Antimicrobial activity against Aspergillus fumigatus GIMCC 3.19 incubated for 24 hrs in presence of polyoxin B by checkerboard method; type: functional
Cryptococcus neoformans [22] = experiment: Antimicrobial activity against Cryptococcus neoformans ATCC 32719 incubated for 24 hrs in presence of polyoxin B by checkerboard method; type: functional
Candida albicans [23] = experiment: Synergistic antimicrobial activity against Candida albicans ATCC 76615 assessed as fractional inhibitory concentration index incubated for 24 hrs in presence of fluconazole by checkerboard method; type: functional
Aspergillus flavus [24] = experiment: Synergistic antimicrobial activity against Aspergillus flavus ATCC 16870 assessed as fractional inhibitory concentration index incubated for 24 hrs in presence of fluconazole by checkerboard method; type: functional
Aspergillus fumigatus [25] = experiment: Additive antimicrobial activity against Aspergillus fumigatus GIMCC 3.19 assessed as fractional inhibitory concentration index incubated for 24 hrs in presence of fluconazole by checkerboard method; type: functional
Cryptococcus neoformans [26] = experiment: Synergistic antimicrobial activity against Cryptococcus neoformans ATCC 32719 assessed as fractional inhibitory concentration index incubated for 24 hrs in presence of fluconazole by checkerboard method; type: functional
Candida albicans [27] = experiment: Synergistic antimicrobial activity against Candida albicans ATCC 76615 assessed as fractional inhibitory concentration index incubated for 24 hrs in presence of polyoxin B by checkerboard method; type: functional
Aspergillus flavus [28] = experiment: Additive antimicrobial activity against Aspergillus flavus ATCC 16870 assessed as fractional inhibitory concentration index incubated for 24 hrs in presence of polyoxin B by checkerboard method; type: functional
Aspergillus fumigatus [29] = experiment: Additive antimicrobial activity against Aspergillus fumigatus GIMCC 3.19 assessed as fractional inhibitory concentration index incubated for 24 hrs in presence of polyoxin B by checkerboard method; type: functional
Cryptococcus neoformans [30] = experiment: Synergistic antimicrobial activity against Cryptococcus neoformans ATCC 32719 assessed as fractional inhibitory concentration index incubated for 24 hrs in presence of polyoxin B by checkerboard method; type: functional
Aspergillus flavus [31] = experiment: Additive antimicrobial activity against Aspergillus flavus ATCC 16870 assessed as fractional inhibitory concentration index incubated for 24 hrs in presence of fluconazole by checkerboard method; type: functional
Aspergillus fumigatus [32] = experiment: Synergistic antimicrobial activity against Aspergillus fumigatus GIMCC 3.19 assessed as fractional inhibitory concentration index incubated for 24 hrs in presence of fluconazole by checkerboard method; type: functional
Cryptococcus neoformans [33] = experiment: Additive antimicrobial activity against Cryptococcus neoformans ATCC 32719 assessed as fractional inhibitory concentration index incubated for 24 hrs in presence of fluconazole by checkerboard method; type: functional
Candida albicans [34] = experiment: Additive antimicrobial activity against Candida albicans ATCC 76615 assessed as fractional inhibitory concentration index incubated for 24 hrs in presence of polyoxin B by checkerboard method; type: functional
Aspergillus fumigatus [35] = experiment: Synergistic antimicrobial activity against Aspergillus fumigatus GIMCC 3.19 assessed as fractional inhibitory concentration index incubated for 24 hrs in presence of polyoxin B by checkerboard method; type: functional
Cryptococcus neoformans [36] = experiment: Additive antimicrobial activity against Cryptococcus neoformans ATCC 32719 assessed as fractional inhibitory concentration index incubated for 24 hrs in presence of polyoxin B by checkerboard method; type: functional

Structure (SMILES)	inhibition (Candida tropicalis)	pIC50 [1]	MIC (Candida albicans [2])	MIC (Aspergillus flavus [3])	MIC (Aspergillus fumigatus [4])	MIC (Cryptococcus neoformans [5])	MIC (Candida albicans [6])	MIC (Aspergillus flavus [7])	MIC (Aspergillus fumigatus [8])	MIC (Cryptococcus neoformans [9])	MIC (Candida albicans [10])	MIC (Aspergillus flavus [11])	MIC (Aspergillus fumigatus [12])	MIC (Cryptococcus neoformans [13])	MIC (Candida albicans [14])	MIC (Candida albicans [15])	MIC (Aspergillus flavus [16])	MIC (Aspergillus fumigatus [17])	MIC (Cryptococcus neoformans [18])	MIC (Candida albicans [19])	further results
O=C(c1cc([N+](=O)[O-])ccc1Cl)N1CCN(CC(=O)N2CCCC23Cc2ccccc2NC3=O)CC1 (configuration not stated)	82.9%	4.00	1 µg/mL (≈ 1.95 µM)	1 µg/mL (≈ 1.95 µM)	4 µg/mL (≈ 7.81 µM)	4 µg/mL (≈ 7.81 µM)	32 µg/mL	64 µg/mL	128 µg/mL	256 µg/mL	32 µg/mL (≈ 62.5 µM)	32 µg/mL (≈ 62.5 µM)	32 µg/mL (≈ 62.5 µM)	128 µg/mL (≈ 250 µM)	32 µg/mL (≈ 62.5 µM)	2 µg/mL	4 µg/mL	1 µg/mL	4 µg/mL	2 µg/mL	MIC (Aspergillus flavus [20]): 1 µg/mL; MIC (Aspergillus fumigatus [21]): 2 µg/mL; MIC (Cryptococcus neoformans [22]): 4 µg/mL; fractional inhibitory concentration index (FICI) (Candida albicans [23]): 1; fractional inhibitory concentration index (FICI) (Aspergillus flavus [24]): 0.75; fractional inhibitory concentration index (FICI) (Aspergillus fumigatus [25]): 1.25; fractional inhibitory concentration index (FICI) (Cryptococcus neoformans [26]): 0.625; fractional inhibitory concentration index (FICI) (Candida albicans [27]): 0.75; fractional inhibitory concentration index (FICI) (Aspergillus flavus [28]): 1.125; fractional inhibitory concentration index (FICI) (Aspergillus fumigatus [29]): 1.25; fractional inhibitory concentration index (FICI) (Cryptococcus neoformans [30]): 0.5
O=C(c1cccc(F)c1)N1CCN(CC(=O)N2CCCC23Cc2ccccc2NC3=O)CC1 (configuration not stated)	76.8%	3.85	1 µg/mL (≈ 2.22 µM)	4 µg/mL (≈ 8.88 µM)	1 µg/mL (≈ 2.22 µM)	8 µg/mL (≈ 17.8 µM)	64 µg/mL	64 µg/mL	128 µg/mL	64 µg/mL	32 µg/mL (≈ 71 µM)	32 µg/mL (≈ 71 µM)	32 µg/mL (≈ 71 µM)	32 µg/mL (≈ 71 µM)	128 µg/mL (≈ 284 µM)	1 µg/mL	2 µg/mL	1 µg/mL	2 µg/mL	0.5 µg/mL	MIC (Aspergillus flavus [20]): 2 µg/mL; MIC (Aspergillus fumigatus [21]): 4 µg/mL; MIC (Cryptococcus neoformans [22]): 2 µg/mL; fractional inhibitory concentration index (FICI) (Candida albicans [23]): 0.75; fractional inhibitory concentration index (FICI) (Aspergillus flavus [31]): 1.25; fractional inhibitory concentration index (FICI) (Aspergillus fumigatus [32]): 0.5; fractional inhibitory concentration index (FICI) (Cryptococcus neoformans [33]): 1.25; fractional inhibitory concentration index (FICI) (Candida albicans [34]): 1.063; fractional inhibitory concentration index (FICI) (Aspergillus flavus [28]): 1.25; fractional inhibitory concentration index (FICI) (Aspergillus fumigatus [35]): 0.625; fractional inhibitory concentration index (FICI) (Cryptococcus neoformans [36]): 1.125
